The values that follow come from patent US20040072815A1, “Antibiotic composition and method” (priority 2003, published 2004).

The test system of one test is bacteria. Conditions: clavulanic acid alone; background statement in words; cited from earlier work.
The target of test [1] is N-acetylated, α-linked, acidic dipeptidase (NAALADase) (Homo sapiens, UniProt Q04609). The experiment in a line: inhibition of NAALADase by clavulanic acid (applicant's discovery, no method given). Conditions: statement in words, no data. Type of test: biochemical.
N-acetylated, α-linked, acidic dipeptidase (NAALADase), sequence (Q04609 whole entry): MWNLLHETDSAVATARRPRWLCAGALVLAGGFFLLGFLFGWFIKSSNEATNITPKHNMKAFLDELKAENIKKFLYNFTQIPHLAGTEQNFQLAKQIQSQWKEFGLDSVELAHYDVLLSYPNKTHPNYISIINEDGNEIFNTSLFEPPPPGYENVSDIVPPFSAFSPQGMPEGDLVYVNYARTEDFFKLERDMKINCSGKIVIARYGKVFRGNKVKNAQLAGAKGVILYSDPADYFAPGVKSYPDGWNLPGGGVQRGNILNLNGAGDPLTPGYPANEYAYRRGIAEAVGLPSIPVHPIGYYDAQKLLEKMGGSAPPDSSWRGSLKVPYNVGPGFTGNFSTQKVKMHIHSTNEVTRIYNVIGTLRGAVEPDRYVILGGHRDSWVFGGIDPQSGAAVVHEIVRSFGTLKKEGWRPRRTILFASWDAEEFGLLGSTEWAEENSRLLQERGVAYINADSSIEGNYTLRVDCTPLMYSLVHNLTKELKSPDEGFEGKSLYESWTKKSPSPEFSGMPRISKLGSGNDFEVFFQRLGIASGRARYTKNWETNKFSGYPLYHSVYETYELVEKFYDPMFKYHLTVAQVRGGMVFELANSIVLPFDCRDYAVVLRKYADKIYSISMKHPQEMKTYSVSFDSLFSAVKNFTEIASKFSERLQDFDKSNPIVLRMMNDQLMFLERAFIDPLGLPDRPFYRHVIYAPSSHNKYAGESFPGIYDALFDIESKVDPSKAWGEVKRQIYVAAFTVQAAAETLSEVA
The subject of a further test is serine β-lactamase. Conditions: background statement in words; cited from earlier work.

Turning to `O=C(O)[C@H]1/C(=C/CO)O[C@@H]2CC(=O)N21` [clavulanic acid], the antibacterial activity result in the test on bacteria is recorded as “only weak, though broad spectrum, antibacterial activity”. The “inhibition of NAALADase” value in test [1] is given as “potent inhibitor”. Also, in the test on serine β-lactamase, the “binding affinity for the serine β-lactamases” value is “very high binding affinity” and the “inhibition of "serine" β-lactamase” value is “potent inhibitor”.
